According to US20220016241A1, “COMPOSITIONS AND METHODS FOR REDUCING ANTIGEN-SPECIFIC IMMUNOGENICITY” (The Research Foundation for The State University of New York, priority 2013, published 2022):

Assays:
[1] = test system: anti-GAA antibody titers; experiment: Effect of OPLS on immunogenicity of GAA protein; type: in vivo, mice; details: 5 mg dose with 1 μg GAA, 4 weekly s.c., 2 week rest
Experimental: Materials and Methods: GAA Source: Full length recombinant rhGAA was produced in Human Kidney Embryo Cells for our use by Creative Biomart (Shirley, N.Y.); OPLS Source: Sigma-Aldrich (St. Louis, Mo.). n=8 animals/group were immunized with 4 weekly s.c. injections of 1 μg of GAA in 100 μl of either sterile TRIS for the free group or in 5 mg OPLS in sterile TRIS for the OPLS-GAA group. A group of 8 mice will receive the same dose of CBrhGAA in 5 mg O-phospho-D-serine (OPDS) solution as a negative control. After a 2 week rest period, a blood sample from the saphenous vein will be collected. Samples were stored at −80° C. until analysis. These samples were then analyzed for anti-GAA Ab titers. Anti-GAA antibody titers were measured as follows: ELISA plate (maxisorp, NUNC) was coated with 50 μl of 5 μg/ml of sterile rhGAA in sodium carbonate-bicarbonate buffer pH =9.6. The plate was incubated overnight at 4° C. The plate was washed six times with PBS containing 0.05% Tween 20 (PBS-T, 250 μl/well) using an automated plate washer. The plate was blocked with PBS containing 1% BSA (300 μl/well) as the block buffer for 2 hr at 37° C. […] The reaction was stopped with 2 N sulfuric acid and read immediately at 450 nm using a micro-plate reader. The titer values are quantitated using a statistical endpoint method as described by Frey et al. Control plasma samples were run on each plate. […]

[2] = test system: anti-FVIII titers; experiment: Effect of OPLS on in-vivo immunogenicity of FVIII after sc administration; set-up: species or system HA mice; details: days 1, 8, 10, 12
Experimental: Effect of OPLS on the immunogenicity of FVIII after SC administration in-vivo: 21 HA mice between 6 and 8 weeks of age were divided into 3 groups: group one received 1 ug FVIII SC in the abdominal region. Group two received 1 μg FVIII plus 0.4 mg OPLS SC in the abdominal region and group 3 received 1 μg FVIII plus 5 mg OPLS sc in the abdominal region. Incubation of FVIII with OPLS at 37° C. for 30 minutes ensures complexation, but for this example, OPLS and FVIII were combined at the desired concentrations at room temperature (22° C.) and immediately administered (within 1 minute). This treatment was given one day 1, 8, 10 and 12. Three days after the last injection the animals were sacrificed. Blood was centrifuged at 7500 rpm for 5 min at 4 degrees Celsius. Plasma was then removed and stored at −80 degrees Celsius until analysis.
Total titers were determined by classical standard ELISA. Anti-FVIII antibody (ESH8) was used as a control. Statistics was done on the arithmetic mean of the log transformed data, graphs are reported as geometric means. Non-responders were given the value of the plate specific factor for uniformity. […]
Statistics: Non-parametric one-way ANOVA with Tukey's post hoc analysis was used for the analysis of titer values where appropriate. Student t-test was used for comparing mean intensity of fluorescence (MIF) for flow cytomerty data. […]

[3] = test system: anti-RXT antibody titers; experiment: Effect of OPLS on rituximab immunogenicity; type: in vivo, SW mice; details: OPLS 5 mg vs 0.4 mg with 1 μg RXT s.c., dose dependent
Experimental: Materials and Methods: 30 SW mice between 6 and 8 weeks of age were divided into 3 groups: group one received 1 ug RXT SC in the abdominal region. Group two received 1 ug RXT/0.4 mg OPLS SC in the abdominal region and group 3 received 1 μg RXT/5 mg OPLS sc in the abdominal region. This treatment was given one day 1, 8, 10 and 12. Three days after the last injection the animals were sacrificed. Blood was centrifuged at 7500 rpm for 5 min at 4 degrees Celsius. Plasma was then removed and stored at −80 degrees Celsius until analysis Total titers were determined by classical standard ELISA. Briefly, Nunc-Maxisorb 96-well plates were coated overnight at 4° C. with 50 μl/well of 2.5 μg/ml RXT. Plates were then washed and blocked with 1% bovine serum albumin (blocking buffer). 50 μl/well of various dilutions of the sample were added to the plate and incubated at room temperature for 2 h. Plasma samples from animals exposes to a sham treatment (buffer only) served as controls. The plates were then washed and incubated with 50 μl of goat anti-mouse FC-specific anti-body-HRP conjugate at a 1:50000 dilution in blocking buffer at room temperature for 1 h. Color was developed for 20 min with 100 μl of TMB solution. 100 μl of 2 N H2SO4 was used to stop the reaction. Optical density at […] was measured using a plate reader. Non-responders were given the value of the plate specific factor for uniformity. […]

For `N[C@@H](COP(=O)(O)O)C(=O)O` [OPLS, O-Phospho-L-Serine], the “Anti-GAA antibody titers vs GAA alone” value [1] was “lower”, the “Total anti-FVIII titer” value ([2]; 1 μg FVIII with high dose OPLS (5 mg/injection) sc, geometric mean±SD) was 5.34±5.8 arbitrary units and the “Total anti-FVIII titer” value ([2]; 1 μg FVIII with low dose OPLS (0.4 mg/injection) sc, not statistically significant vs FVIII alone) was 137±1.4 arbitrary titer units. The “Anti-RXT antibody titers vs RXT alone” value [3] was “lower”.
